Laboratory results taken from US20210171576A1, “METHODS FOR TREATING CANCER WITH ACYLDEPSIPEPTIDE ANALOGS” (priority 2018, published 2021).
Where a SMILES comes first, the peptide text is derived from it. Bridges are numbered along the chain shown (N, C = ends). [ ]: non-standard residue; d: D form. The star is where a group is joined. Phe(3,5-F2) = N[C@@H](Cc1cc(F)cc(F)c1)C(=O)O; Heptenoyl(2E) = CCCC/C=C/C(=O)*; aThr = C[C@H](O)[C@H](N)C(=O)O; Pip = O=C(O)[C@@H]1CCCCN1

Columns and labels:
[1] = tested on: U2OS cells; experiment: Cytotoxicity, SRB staining
Protocol: (§1) To assess the cytotoxicity of ADEP analogs, cells were seeded at 1×10^3 or 2×10^3 cells in 50 μL per well on sterile 96-well flat-bottom tissue culture plates (VWR). Growth media without any cells was included as a control. Cells were grown for at least 24 hours to allow proper adherence to the growth surface. Afterwards, ADEP analogs were serially diluted and introduced to the tissue cultures via fresh growth media at 50 μL per well. Inclusion of activators/DMSO brought the final DMSO concentration of the growth media up to a maximum of 0.5% (v:v). […] A total of four independent replicates were prepared for each cell line and for each growth condition used. Cells were grown in the presence of ADEP/DMSO for 72 hours.
(§2) To assess cell survival, live adherent cells were fixed with 10% (w:v) trichloroacetic acid (TCA) at 4° C. for 1-2 hours. The tissue culture plates were then rinsed with water to remove dead cells and cell debris and air-dried overnight. […] Absorbance at λ=510 nm (A510) was then measured using the EnSpire 2300 Multilabel Reader. […]
(§3) To determine the IC50 for the ADEP analogs, relative cell viability (RCV) values were calculated by normalizing the A510 readings in ADEP-containing sample to the DMSO-only control. […]

[2] = tested on: HeLa T-REx cells; experiment: Cytotoxicity, SRB staining
Protocol: as §1, §2, §3

[3] = tested on: HEK293 T-REx+CLPP-FLAG cells; experiment: Cytotoxicity, SRB staining, with or without Dox
Protocol: To assess the cytotoxicity of ADEP analogs, cells were seeded at 1×10^3 or 2×10^3 cells in 50 μL per well on sterile 96-well flat-bottom tissue culture plates (VWR). Growth media without any cells was included as a control. Cells were grown for at least 24 hours to allow proper adherence to the growth surface. Afterwards, ADEP analogs were serially diluted and introduced to the tissue cultures via fresh growth media at 50 μL per well. Inclusion of activators/DMSO brought the final DMSO concentration of the growth media up to a maximum of 0.5% (v:v). For experiments that involve overexpression of FLAG-tagged HsCIpP (WT or S153A mutant), Dox (Sigma-Aldrich) was also applied at 0.4 μg/mL (final concentration) as needed. A total of four independent replicates were prepared for each cell line and for each growth condition used. Cells were grown in the presence of ADEP/DMSO for 72 hours.
as §2, §3

[4] = tested on: undifferentiated SH-SY5Y cells; experiment: Cytotoxicity, SRB staining
Protocol: as §1, §2, §3

[5] = tested on: HEK293 T-REx CLPP^−/− cells; experiment: Cytotoxicity, SRB staining, 72 hours; details: CLPP^−/− cells lacking endogenous HsCIpP
Protocol: To assess the cytotoxicity of ADEP analogs, cells were seeded at 1×10^3 or 2×10^3 cells in 50 μL per well on sterile 96-well flat-bottom tissue culture plates (VWR). Growth media without any cells was included as a control. Cells were grown for at least 24 hours to allow proper adherence to the growth surface. Afterwards, ADEP analogs were serially diluted and introduced to the tissue cultures via fresh growth media at 50 μL per well. Inclusion of activators/DMSO brought the final DMSO concentration of the growth media up to a maximum of 0.5% (v:v). […] A total of four independent replicates were prepared for each cell line and for each growth condition used. […]
To assess cell survival, live adherent cells were fixed with 10% (w:v) trichloroacetic acid (TCA) at 4° C. for 1-2 hours. […] Absorbance at λ=510 nm (A510) was then measured using the EnSpire 2300 Multilabel Reader. […]
as §3
Assessment of cytotoxicity of ADEP-14 on human breast cancer cell lines (MDA-MB-231 WT, MDA-MB-231 CLPP-KD, MDA-MB-468, and MCF-7) and HEK cells (HEK293 T-Rex and HEK293 T-REx CLPP) were determined using the methods as described above in Example 1. […] Sulforhodamine B (SRB) staining method was used to quantify cell survival.

[6] = biological target: T1, HsCIpP (Homo sapiens, UniProt Q16740, P57S); experiment: Peptidase activity assay (Ac-WLA-AMC cleavage) with ADEP; format: biochemical; details: 6 μM HsCIpP, 100 μM Ac-WLA-AMC
T1 construct: 2x(His6-thrombin)-SUMO (N, cleaved yes); made in house; host or cells: E. coli (SG1146 stated for HsClpP; 'a similar protocol' for HsClpX)
T1 sequence (Q16740 57-277 P57S): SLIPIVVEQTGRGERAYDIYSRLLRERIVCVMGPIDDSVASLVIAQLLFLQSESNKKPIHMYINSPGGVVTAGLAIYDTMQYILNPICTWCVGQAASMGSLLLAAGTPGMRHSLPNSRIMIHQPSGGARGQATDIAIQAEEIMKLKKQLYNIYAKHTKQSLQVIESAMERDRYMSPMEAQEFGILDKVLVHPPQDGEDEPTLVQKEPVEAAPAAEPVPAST
Protocol: The peptidase activity of purified, untagged HsCIpP was assessed by monitoring the degradation of peptidyl substrates labelled with a C-terminal 7-amido-4-methylcoumarin (AMC) fluorophore. […] To identify a suitable peptidyl substrate, commercially available AMC-labelled peptides were purchased and tested for degradation by HsCIpP. These include N-acetyl-Trp-Leu-Ala-AMC (Ac-WLA-AMC) (R&D Systems) that was also previously used by Csizmadia et (Csizmadia et al., 2016), benzyloxycarbonyl-Arg-Arg-AMC (Z-RR-AMC) (Sigma-Aldrich), N-acetyl-Leu-Glu-His-Asp-AMC […] (Sigma-Aldrich), N-acetyl-Val-Glu-Thr-Asp-AMC (Ac-VETD-AMC) (Sigma-Aldrich), and benzyloxycarbonyl-Leu-Leu-Leu-AMC (Z-LLL-AMC) (Sigma-Aldrich). Suc-LY-AMC (MP Biomedicals) was also tested as a negative control. All stock solutions of the AMC-labelled peptides were prepared by dissolving the lyophilized peptides in DMSO at 90 mM or a lower concentration recommended by the manufacturer. […] Degradation of the peptidyl substrates and subsequent release of the free AMC moiety was monitored by fluorescence with λex=360 nm and λem=440 nm using the EnSpire 2300 Multilabel Reader (Perkin-Elmer) set to perform a reading every 30 s with 20 flashes. A total of 240 readings were collected for each of three independent replicates prepared for each peptidyl substrate. […]
Initial degradation rates data were analyzed using the Hill model. […]

CCCC/C=C/C(=O)N[C@@H](Cc1cc(F)cc(F)c1)C(=O)N[C@@H]1C(=O)N2CCC[C@H]2C(=O)N2CCCC[C@H]2C(=O)N[C@@H](C)C(=O)N2CCC[C@H]2C(=O)O[C@H]1C [ADEP-41] ({Heptenoyl(2E)}-[Phe(3,5-F2)][aThr]P[Pip]AP; ester 2-C)
IC50 compared across cell lines [1]: similar | IC50 compared across cell lines [2]: similar | change in IC50 relative to WT ([3]; 0.4 μg/mL Dox, HsCIpP overexpression): significant decrease in IC50 | sensitivity relative to WT ([3]; without Dox): equally sensitive | IC50 compared across cell lines [4]: slightly higher value | sensitivity to ADEP-induced cytotoxicity [5]: resistant | Hill coefficient (h), peptidase activity [6]: 1.5
